Laboratory results from ChEMBL document CHEMBL1201862, “PubChem BioAssay data set” (2004).
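Growth conditions: 96-well plates. Treatment: test compound, 48 hours, 5 concentrations. Analysis: linear interpolation between bracketing concentrations; unreached endpoints set to highest concentration. GI50: concentration for 50% inhibition of growth.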 Activity calls are given as the source filed them. Cut-off read from the data, not from the text of the source: active = GI50 up to about 1.1 µM and inactive = higher.

Experiments:
Test in all cases: NCI anticancer screen, dose series, 48 h
[1] = system: A498
[2] = system: COLO 205
[3] = system: SNB-75
[4] = system: MDA-N
[5] = system: Malme-3M
[6] = system: NCI/ADR-RES
[7] = system: NCI-H226
[8] = system: UO-31
[9] = system: M14
[10] = system: HT-29
[11] = system: MOLT-4
[12] = system: SK-MEL-28
[13] = system: SK-MEL-2
[14] = system: A549
[15] = system: SW-620
[16] = system: SF-268
[17] = system: MDA-MB-435
[18] = system: OVCAR-8
[19] = system: CCRF-CEM

Measured: GI50

COC(=O)c1nn2ccc3ccccc3c2c1C(=O)OC
inactive: [1] 22.5 µM | [2] > 100 µM | [3] 72.8 µM | [4] 34.8 µM | [5] > 100 µM | [6] 62.7 µM | [7] > 100 µM | [8] 32.2 µM | [9] 33 µM | [10] 48 µM | [11] 39.9 µM | [12] > 100 µM | [13] > 100 µM | [14] > 100 µM | [15] > 100 µM | [16] > 100 µM | [17] 76.7 µM | [18] > 100 µM

CO[C@@H]1C[C@H]2[C@@H]3CC[C@H]([C@@H](C)CO)[C@@]3(C)CC[C@@H]2[C@@]2(C)CC[C@H]3C[C@]312
inactive: [1] > 100 µM | [2] 17.6 µM | [3] 74.3 µM | [4] 34.7 µM | [5] 19.5 µM | [6] 24.9 µM | [7] 24.4 µM | [8] 39.8 µM | [9] 23.3 µM | [10] 18.5 µM | [11] 31.1 µM | [12] 27.6 µM | [14] 36 µM | [15] 31.9 µM | [16] 67 µM | [17] 27.5 µM | [18] 31 µM | [19] 40.2 µM

O=[N+]([O-])c1cccc(/N=N/c2c(O)ccc3ccccc23)c1
inactive: [1] > 100 µM | [2] > 100 µM | [3] 91 µM | [4] 87.3 µM | [5] 63.1 µM | [6] 70 µM | [8] > 100 µM | [9] > 100 µM | [10] > 100 µM | [11] 85.3 µM | [12] 90.4 µM | [13] 50.4 µM | [14] > 100 µM | [15] 57 µM | [16] 51.4 µM | [17] 39.1 µM | [18] > 100 µM | [19] 16.2 µM

c1cc(-c2sc(-c3ccncc3)c(-c3ccncc3)c2-c2ccncc2)ccn1
inactive: [1] 12.5 µM | [2] 12.8 µM | [3] 14 µM | [4] 13.8 µM | [5] 17.7 µM | [6] 22.9 µM | [7] 14.6 µM | [8] 12.6 µM | [9] 16.5 µM | [10] 13.6 µM | [11] 12 µM | [12] 19.6 µM | [13] 20.1 µM | [14] 17.2 µM | [15] 17 µM | [16] 15.2 µM | [17] 14.6 µM | [18] 24.4 µM

O=C(O)CCCc1ccc2c(c1)CC1(C2)Cc2cc3c(cc2C1)CCCC3
inactive: [1] 17.1 µM | [2] 19.9 µM | [4] 19.1 µM | [5] 22 µM | [6] 31.8 µM | [7] 31.6 µM | [8] 19.4 µM | [9] 15.2 µM | [10] 16.3 µM | [11] 1.52 µM | [13] 17.5 µM | [14] 6.43 µM | [17] 17.3 µM | [18] 16.5 µM | [19] 11.6 µM

Cc1cccc(-n2c(C)nc3ccc(NC(=S)Nc4ccccc4)cc3c2=O)c1
inactive: [1] > 100 µM | [2] 30.6 µM | [3] > 100 µM | [4] 55.6 µM | [5] 69.2 µM | [6] 84.1 µM | [7] 81.1 µM | [8] 47.4 µM | [10] 51.9 µM | [11] 28.4 µM | [12] > 100 µM | [13] 39 µM | [15] > 100 µM | [16] 66.5 µM | [17] 56 µM | [18] 74.3 µM

Cc1cc(NS(=O)(=O)c2ccc(NC(NC(=O)OC(C)C)(C(F)(F)F)C(F)(F)F)cc2)nc(C)n1
inactive: [1] > 100 µM | [2] > 100 µM | [3] > 100 µM | [4] > 100 µM | [5] > 100 µM | [6] > 100 µM | [7] > 100 µM | [9] > 100 µM | [10] > 100 µM | [11] > 100 µM | [12] > 100 µM | [14] > 100 µM | [15] > 100 µM | [16] > 100 µM | [17] > 100 µM | [18] > 100 µM | [19] > 100 µM

CSC1=N[C@H](c2ccccc2)CS1
inactive: [1] > 100 µM | [2] > 100 µM | [3] 2.8 µM | [4] > 100 µM | [6] > 100 µM | [8] > 100 µM | [9] > 100 µM | [10] > 100 µM | [11] > 100 µM | [12] > 100 µM | [13] > 100 µM | [14] > 100 µM | [15] > 100 µM | [17] > 100 µM | [19] > 100 µM

Cc1csc(CP(=O)(OC(C)C)OC(C)C)n1
inactive: [1] > 100 µM | [2] > 100 µM | [3] > 100 µM | [4] > 100 µM | [5] > 100 µM | [6] > 100 µM | [7] > 100 µM | [8] 74 µM | [9] > 100 µM | [10] > 100 µM | [11] > 100 µM | [12] > 100 µM | [13] > 100 µM | [14] > 100 µM | [15] > 100 µM | [16] > 100 µM | [17] > 100 µM | [18] > 100 µM

NC(=S)N/N=C1\C(=O)C=C(Nc2ccc(Cl)cc2Cl)c2ccccc21
inactive: [1] 23.3 µM | [2] 35.9 µM | [3] 11.5 µM | [4] > 100 µM | [6] 33.6 µM | [7] 33.6 µM | [8] 92 µM | [9] 44.5 µM | [10] > 100 µM | [11] 51.2 µM | [12] > 100 µM | [13] 39.3 µM | [14] > 100 µM | [15] > 100 µM | [16] 9.38 µM | [17] > 100 µM | [18] 21.9 µM

C[C@]12CC[C@H]3[C@@H](CC=C4C[C@@H](N5CCCC5)CC[C@@]43C)[C@@H]1C[C@H](N1CCCCC1)[C@@H]2O
inactive: [1] > 100 µM | [2] 93.3 µM | [3] > 100 µM | [4] 61.1 µM | [5] 42.5 µM | [6] > 100 µM | [7] > 100 µM | [8] > 100 µM | [9] 20.3 µM | [10] 14.3 µM | [11] > 100 µM | [12] 45.3 µM | [14] > 100 µM | [15] > 100 µM | [16] > 100 µM | [17] 45.4 µM | [18] > 100 µM | [19] > 100 µM
